Entries after “also recorded” stand apart in the source; their conditions may differ. Read-outs that look alike come from different tables or passages of the source.
Tests used:
[1] = system: PHRF1 (RP); assay: PHD finger domain microarray; assay type: binding, human
Text: (§1) To define the histone binding preferences of the PHD finger proteome, we expressed and purified 123 annotated human PHD-containing domains as GST-tagged recombinant fusions from E. coli. The recombinant proteins consisted of either PHD fingers in isolation, or as tandem domains if a given PHD finger was located adjacent to another reader domain (e.g., one or more PHD fingers, Tudor, chromo and/or bromodomains) (Additional file 1: Table S1). These GST fusions were printed in duplicate on nitrocellulose-coated microarray slides and probed with biotinylated peptides that represented the N-termini of H3, H4, H2A or H2B (Fig. 1a and Additional file 2: Figure S1). As the majority of PHD readers thus far characterized are H3K4me0/3 readers, we included additional peptides (H3K4 as either mono-, di-, or trimethylated) to further determine any H3K4 methyl preference (Additional file 2: Figure S2 and Fig. 1b). As a control, we also probed these microarrays with an α-Tubulin peptide (a.a. 30–50) that would not be predicted to interact with PHD fingers (Additional file 2: Figure S1). […] We also cannot exclude the possibility that some PHD fingers might not be functionally active on the microarrays (perhaps due to misfolding or the lack of an important adjacent region).
(§2) The protein domain microarray was designed to include 123 GST-tagged PHD-domain containing recombinant proteins. Protein domain microarray development and probing was as previously. Briefly, recombinant proteins were synthesized and cloned into pGEX-4T-1 vector by Biomatik Corporation. These GST-PHD readers were subsequently expressed, purified, and spotted in duplicate onto nitrocellulose-coated glass slides (Oncyte Avid slides, Grace Bio-Labs) using a pin arrayer (Aushon 2470, Aushon). For probing, microarray slides were blocked with 3% milk, 3% bovine serum albumin, 0.1% Tween 20 in PBS. Biotinylated peptides were pre-labeled with streptavidin-Cy3 fluorophore (GE Healthcare) and incubated with the blocked array slides. Slides were then washed with PBST and allowed to air dry. Fluorescent interactions were visualized using a GenePix 4200A Microarray Scanner (Molecular Devices).

[2] = system: KDM5B (PHD3); assay: PHD finger domain microarray; assay type: binding, human
Text: as §1, §2

[3] = system: CHD5 (PCC); assay: PHD finger domain microarray; assay type: binding, human
Text: as §1, §2

[4] = system: PHRF1 (RP); assay: dCypher AlphaScreen Phase B (full peptide screen); assay type: binding, human; conditions: reader 15 nM, 100 nM peptide, 23 °C, n = 2
Experimental: (§3) X-axes are log(protein concentration (M)) at constant peptide concentration (100 nM); Y-axes are AlphaScreen counts, representing relative strength of binding (n = 2; error bars are S.D.). i Heat map represents relative binding to H3 N-terminal peptides (left) by PHD-containing GST-tagged proteins (top) using the dCypher AlphaScreen platform. Protein concentrations can be found in Additional file 5: Table S4. Binding strength is indicated by color gradient from green to yellow (stronger to weaker). […] Alpha counts (n = 2) were normalized individually for each protein to the highest signal for each respective assay. For full dCypher peptide screen data, see Additional file 4: Table S3
(§4) Once the optimal protein concentration ranges for each of the eight readers were determined, we conducted the full dCypher peptide screen (293 histone peptides) (Fig. 3i; Additional file 4: Table S3).
(§5) The dCypher peptide screen assay was performed as previously described. Briefly, 5 μL of GST-tagged reader domains (optimal protein concentration for library screening determined by initial binding curves to candidate peptides) were incubated with 5 μL of 400 nM (100 nM Final) biotinylated histone peptides (EpiCypher) for 30 min at 23 °C in 1× AlphaLISA Epigenetics buffer + epigenetics buffer supplement (PerkinElmer, AL1008) in a 384-well plate. A 10 μL mix of 5 µg/mL (2.5 μg/mL final) glutathione Acceptor beads (PerkinElmer, AL109M) and 10 μg/mL (5 μg/mL final) streptavidin Donor beads (PerkinElmer, 6760002) was prepared in 1× [Epigenetics buffer + supplement] and added to each well. Plates were incubated at 23 °C in subdued lighting for 60 min and AlphaLISA signal measured on a PerkinElmer 2104 EnVision (680 nm laser excitation, 570 nm emission filter ± 50 nm bandwidth).
(§6) Supplementary file 13072_2020_328_MOESM4_ESM.xlsx: Additional file 4: Table S3. dCypher Results. Excel Tab Peptide Phase A is a compiled set of binding data: chromatin reader titration vs. several peptide targets. Data is presented as raw Alpha counts in duplicates at each concentration tested. Excel Tab Peptide Phase B is a compiled set of binding data: chromatin reader at optimized concentrations vs. entire 293 peptide library. Data is presented as the average and standard deviation of duplicates. […] Key: red = strong binding; blue = weak/no binding.

[5] = system: CHD4 (PPCC); assay: dCypher AlphaScreen Phase B (full peptide screen); assay type: binding, human; conditions: reader 0.65 nM, 100 nM peptide, 23 °C, n = 2
Experimental: as §3, §4, §5, §6

[6] = system: KDM5B (PHD1); assay: Peptide pulldown (immunoblot); assay type: binding, human; conditions: n = 2
Experimental: (§7) The 31 GST-tagged PHD readers identified in the PHD finger domain array were expressed and purified as previously. Histone peptide arrays and peptide pulldown assays were conducted as recently described (specifically, the optimized protocol from Petell et al. for the former).
(§8) Figure S5. Peptide Pulldowns with KDM7A and KDM5B (PPC2W2). Representative immunoblot analysis of peptide pulldowns for the PHD fingers of KDM7A and KDM5B (PHD1) with the peptides indicated on the top of the image (n=2).

[7] = system: MLL5 PHD finger; assay: PHD finger domain microarray; assay type: binding, human
Text: as §1, §2

[8] = system: PHD finger of MLL5; conditions: cited from earlier work
Text: Our findings from domain and peptide microarray confirm the reported binding preferences of many PHD proteins such as those of the ING and PHF families. […] We surmise that the basis of this differenc ...

[9] = system: KDM7A PHD finger; assay: Peptide pulldown (immunoblot); assay type: binding, human; conditions: n = 2
Experimental: as §7, §8

[10] = system: H3K4me0 readers; assay: dCypher AlphaScreen Phase B (full peptide screen), H3K4me0 readers together; assay type: binding, human; conditions: 100 nM peptide, 23 °C, n = 2
Experimental: Fig. 3 dCypher histone peptide-binding assays define the PTM recognition preference of PHD proteins with high sensitivity. a–h Binding curves to determine optimal reader protein concentration for full peptide library screening on the dCypher® AlphaScreen® platform (see “Methods”). X-axes are log(protein concentration (M)) at constant peptide concentration (100 nM); Y-axes are AlphaScreen counts, representing relative strength of binding (n = 2; error bars are S.D.). i Heat map represents relative binding to H3 N-terminal peptides (left) by PHD-containing GST-tagged proteins (top) using the dCypher AlphaScreen platform. Protein concentrations can be found in Additional file 5: Table S4. […]
as §4
The dCypher peptide screen assay was performed as previously described. Briefly, 5 μL of GST-tagged reader domains (optimal protein concentration for library screening determined by initial binding curves to candidate peptides) were incubated with 5 μL of 400 nM (100 nM Final) biotinylated histone peptides (EpiCypher) for 30 min at 23 °C in 1× AlphaLISA Epigenetics buffer + epigenetics buffer supplement (PerkinElmer, AL1008) in a 384-well plate. […]

Row | Substance | binding preference [3] | binding [4] | binding preference [7] | binding preference [2] | binding [5] | reported binding [8] | also measured
1 | H3K4me2: H3 1-20 [Peptide H3K4me2] |  |  | strong preference |  |  | discrepancies in whether the PHD finger of MLL5 is a H3K4me3 or H3K4me2 reader | 
2 | H3K9me3: H3 1-20 [Peptide H3K9me3] |  | more limited interactions |  |  | ability to bind to the peptides containing H3K9me3 |  | 
3 | H3S10p: H3 1-20 [Peptide H3S10p] |  |  |  |  |  |  | loss of binding on S10 phosphorylation [10]: this phenomenon is also observed

Second part, led by results:

Row | binding preference [3] | binding [4] | binding preference [7] | Substance | binding preference [2] | binding [5] | reported binding [8] | also measured
4 | no preference | more limited interactions |  | H3 (1-20): unmodified H3 N-terminal peptide (1–20) | no preference | clearer specificity for the H3K4me0 peptide over the methylated species |  | binding preference ([1]; listed as H3K4me0): no preference on the domain array; binding preference ([1]; listed as unmodified H3 tail): readers of the unmodified H3 tail; binding in peptide pulldown [6]: reads H3K4me0
5 | no preference |  | strong preference | H3K4me3: H3 1-20 [Peptide H3K4me3] | consistent with their current classification as H3K4me3 binders; also recorded: no preference |  | discrepancies in whether the PHD finger of MLL5 is a H3K4me3 or H3K4me2 reader | binding preference [1]: no preference; binding in peptide pulldown [9]: binds H3K4me3

— article PMC6979384, “Characterization of the plant homeodomain (PHD) reader family for their histone tail interactions” (Epigenetics & Chromatin, 2020)
